In patent US20260337193A1, “SMALL MOLECULE INHIBITORS OF UBIQUITIN SPECIFIC PROTEASE 1 (USP1) AND USES THEREOF” (Insilico Medicine IP Limited, priority 2023, published 2026):

Assays:
[1] = biological target: T1, Human recombinant USP1/UAF1 (Homo sapiens, UniProt O94782); assay: Enzymatic assay: USP1/UAF1 deubiquitination of Ubiquitin Rhodamine 110 (kinetic fluorescence); assay type: biochemical; conditions: 2 nM USP1/UAF1, 15 min preincubation at RT, HEPES pH 8.0, 500 nM Ubiquitin Rhodamine 110
T1 construct: purchased R & D E-568-050; host or cells: baculovirus infected Sf21 cells
T1 sequence (O94782 whole entry): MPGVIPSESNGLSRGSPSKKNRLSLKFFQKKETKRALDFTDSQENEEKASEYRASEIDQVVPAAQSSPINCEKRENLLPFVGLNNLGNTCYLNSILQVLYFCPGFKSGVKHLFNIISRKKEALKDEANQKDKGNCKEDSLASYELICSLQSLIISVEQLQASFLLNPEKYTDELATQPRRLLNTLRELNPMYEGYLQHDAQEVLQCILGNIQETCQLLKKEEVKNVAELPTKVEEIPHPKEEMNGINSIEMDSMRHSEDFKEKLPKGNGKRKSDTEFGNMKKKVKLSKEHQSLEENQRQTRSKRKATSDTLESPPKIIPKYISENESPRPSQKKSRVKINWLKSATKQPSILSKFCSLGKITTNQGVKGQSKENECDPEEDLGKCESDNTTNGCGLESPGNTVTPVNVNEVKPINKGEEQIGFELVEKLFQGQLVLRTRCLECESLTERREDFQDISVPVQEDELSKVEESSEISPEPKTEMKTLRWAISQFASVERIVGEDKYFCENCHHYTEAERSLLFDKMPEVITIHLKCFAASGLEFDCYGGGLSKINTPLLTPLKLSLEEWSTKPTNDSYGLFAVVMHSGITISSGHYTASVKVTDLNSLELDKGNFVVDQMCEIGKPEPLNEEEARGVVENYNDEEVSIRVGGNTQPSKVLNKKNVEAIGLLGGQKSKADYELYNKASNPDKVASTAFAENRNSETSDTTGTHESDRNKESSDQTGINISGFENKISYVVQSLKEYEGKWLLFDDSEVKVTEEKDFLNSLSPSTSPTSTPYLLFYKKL
T1 sequence (Q8TAF3 whole entry partner): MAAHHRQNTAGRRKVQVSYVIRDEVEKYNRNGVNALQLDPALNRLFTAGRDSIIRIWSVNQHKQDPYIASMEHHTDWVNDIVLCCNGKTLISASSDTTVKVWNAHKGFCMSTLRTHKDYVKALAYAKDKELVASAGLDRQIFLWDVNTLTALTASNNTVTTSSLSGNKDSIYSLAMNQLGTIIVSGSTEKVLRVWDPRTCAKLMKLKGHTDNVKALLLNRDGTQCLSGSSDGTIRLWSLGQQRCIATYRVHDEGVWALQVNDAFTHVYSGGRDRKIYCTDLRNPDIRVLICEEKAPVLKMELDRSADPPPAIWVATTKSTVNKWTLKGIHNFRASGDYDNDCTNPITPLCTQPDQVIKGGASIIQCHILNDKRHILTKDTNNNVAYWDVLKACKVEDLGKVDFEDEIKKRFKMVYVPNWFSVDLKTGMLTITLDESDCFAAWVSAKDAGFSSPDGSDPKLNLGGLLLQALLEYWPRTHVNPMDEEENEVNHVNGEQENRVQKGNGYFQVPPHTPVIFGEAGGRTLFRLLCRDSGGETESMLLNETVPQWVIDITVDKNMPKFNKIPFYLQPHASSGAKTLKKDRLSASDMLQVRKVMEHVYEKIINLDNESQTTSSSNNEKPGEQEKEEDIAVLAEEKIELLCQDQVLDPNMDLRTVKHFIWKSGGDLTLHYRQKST
Experimental: Example A1: Enzymatic Assay
Human recombinant USP1/UAF1 expressed in baculovirus infected Sf21 cells were used (R & D, E-568-050). Test compound and/or vehicle was incubated with 2 nM of USP1/UAF1 in modified HEPES buffer pH 8.0 for 15 minutes at RT. The reaction was initiated by addition of 500 nM of Ubiquitin Rhodamine 110 (R & D, U-555-050) for kinetic reading. Slope change of fluorescence intensity was read spectrofluorimetrically at 485 nm/535 nm. Dose response of test compounds or reference compound ML-323 was analyzed by nonlinear regression of GraphPad prism software.

MDA-MB-436 cells = assay: MDA-MB-436 breast cancer cell proliferation assay (CellTiter-Glo); assay type: cell-based; conditions: Homo sapiens, 168 h, 7 days, 37° C.
Experimental: Example A2: MDA-MB-436 Breast Cancer Cell Culture
MDA-MB-436 cells were grown in Leibovitz's L-15 medium with 10 μg/ml insulin, 16 μg/ml glutathione, 10% FBS. Cells were passaged at subconfluence after trypsinization and maintained in incubators at 37° C. in a humidified atmosphere with 5% CO2.
Example A3: MDA-MB-436 Breast Cancer Cell Proliferation Assay
Cell proliferation was determined using CellTiter-Glo® Luminescent Cell Viability Assay (Promega, #G7573). MDA-MB-436 cells were seeded in 384-well plates and allowed to attach for 24 h. Compounds were added into 384-well plate by ECHO, and incubated at 37° C. in a humidified atmosphere with 5% CO2. After 7 days, CellTiter-Glo® was added into 384 well plates, contents were mixed on an orbital shaker at 400 g for 2 min before centrifuging the plate for 2 min at 1000 rpm. After incubation at RT for 30 min, luminescence was read on envision.

| SMILES | IC50 [1] [nM] | IC50 (MDA-MB-436 cells) [nM] |
| --- | --- | --- |
| COc1ncnc(C2CC2)c1-n1nc(C)c2c1CN(c1cnc(-c3nc(C(F)(F)F)cn3C)cn1)CC2 [Compound 15, 1-(4-cyclopropyl-6-methoxypyrimidin-5-yl)-3-methyl-6-(5-(1-methyl-4-(trifluoromethyl)-1H-imidazol-2-yl)pyrazin-2-yl)-4,5,6,7-tetrahydro-1H-pyrazolo[3,4-c]pyridine] | < 50 | < 50 |
| Cc1cnn(C(C)C)c1-n1nc(C)c2c1CN(c1ccc(-c3nc(C(F)(F)F)cn3C)cn1)CC2 [Compound 27, 1-(1-isopropyl-4-methyl-1H-pyrazol-5-yl)-3-methyl-6-(5-(1-methyl-4-(trifluoromethyl)-1H-imidazol-2-yl)pyridin-2-yl)-4,5,6,7-tetrahydro-1H-pyrazolo[3,4-c]pyridine] | < 50 | < 50 |
| COc1ncnc(C2CC2)c1-n1nc(C)c2c1CN(c1ccc(-c3nc(C(F)(F)F)cn3C(C)C)cn1)CC2 [Compound 13, 1-(4-cyclopropyl-6-methoxypyrimidin-5-yl)-6-(5-(1-isopropyl-4-(trifluoromethyl)-1H-imidazol-2-yl)pyridin-2-yl)-3-methyl-4,5,6,7-tetrahydro-1H-pyrazolo[3,4-c]pyridine] | 50 to 1000 | 50 to 1000 |
| COc1ncnc(C2CC2)c1-c1nnn2c1CN(c1ccc(-c3nc(C(F)(F)F)cn3C)cc1)CC2 [Compound 3, 3-(4-cyclopropyl-6-methoxypyrimidin-5-yl)-5-(4-(1-methyl-4-(trifluoromethyl)-1H-imidazol-2-yl)phenyl)-4,5,6,7-tetrahydro-[1,2,3]triazolo[1,5-a]pyrazine] | 50 to 1000 | 50 to 1000 |
| COc1ncnc(C2CC2)c1-n1nc(C)c2c1CN(c1ncc(-c3nc(C(F)(F)F)cn3C)cn1)CC2 [Compound 16, 1-(4-cyclopropyl-6-methoxypyrimidin-5-yl)-3-methyl-6-(5-(1-methyl-4-(trifluoromethyl)-1H-imidazol-2-yl)pyrimidin-2-yl)-4,5,6,7-tetrahydro-1H-pyrazolo[3,4-c]pyridine] | 50 to 1000 | 50 to 1000 |
| COc1ncnc(C2CC2)c1-n1nc(C(F)(F)F)c2c1CN(c1ccc(-c3nc(C(F)(F)F)cn3C)cn1)CC2 [Compound 23, 1-(4-cyclopropyl-6-methoxypyrimidin-5-yl)-6-(5-(1-methyl-4-(trifluoromethyl)-1H-imidazol-2-yl)pyridin-2-yl)-3-(trifluoromethyl)-4,5,6,7-tetrahydro-1H-pyrazolo[3,4-c]pyridine] | 50 to 1000 | 50 to 1000 |
| COc1ncnc(C2CC2)c1-c1nn(C)c2c1CN(c1ccc(-c3nc(C(F)(F)F)cn3C)nc1)C2 [Compound 6, 3-(4-cyclopropyl-6-methoxypyrimidin-5-yl)-1-methyl-5-(6-(1-methyl-4-(trifluoromethyl)-1H-imidazol-2-yl)pyridin-3-yl)-1,4,5,6-tetrahydropyrrolo[3,4-c]pyrazole] | 1000 to 10000 |  |
| COc1ncnc(C2CC2)c1-n1nc(C)c2c1CN(c1ccc(-c3nc(C(F)(F)F)cn3C)c(F)c1)CC2 [Compound 17, 1-(4-cyclopropyl-6-methoxypyrimidin-5-yl)-6-(3-fluoro-4-(1-methyl-4-(trifluoromethyl)-1H-imidazol-2-yl)phenyl)-3-methyl-4,5,6,7-tetrahydro-1H-pyrazolo[3,4-c]pyridine] | < 50 | < 50 |
| CCn1cc(C(F)(F)F)nc1-c1ccc(N2CCc3c(C)nn(-c4c(OC)ncnc4C4CC4)c3C2)nc1 [Compound 12, 1-(4-cyclopropyl-6-methoxypyrimidin-5-yl)-6-(5-(1-ethyl-4-(trifluoromethyl)-1H-imidazol-2-yl)pyridin-2-yl)-3-methyl-4,5,6,7-tetrahydro-1H-pyrazolo[3,4-c]pyridine] | 50 to 1000 | < 50 |
| COc1ncnc(C2CC2)c1-n1nc(C)c2c1CN(c1ncc(-c3nc(C(F)(F)F)cn3C)s1)CC2 [Compound 21, 2-(1-(4-cyclopropyl-6-methoxypyrimidin-5-yl)-3-methyl-1,4,5,7-tetrahydro-6H-pyrazolo[3,4-c]pyridin-6-yl)-5-(1-methyl-4-(trifluoromethyl)-1H-imidazol-2-yl)thiazole] | 50 to 1000 | 50 to 1000 |
| COc1ncnc(C2CC2)c1-c1nn(C)c2c1CN(c1ncc(-c3nc(C(F)(F)F)cn3C)s1)C2 [Compound 4, 2-(3-(4-cyclopropyl-6-methoxypyrimidin-5-yl)-1-methyl-4,6-dihydropyrrolo[3,4-c]pyrazol-5(1H)-yl)-5-(1-methyl-4-(trifluoromethyl)-1H-imidazol-2-yl)thiazole] | 50 to 1000 | 50 to 1000 |
| CC(C)c1ncccc1-c1ncnc2c1CN(c1ccc(-c3nc(C(F)(F)F)cn3C)cc1)CC2 [Compound 1, 4-(2-isopropylpyridin-3-yl)-6-(4-(1-methyl-4-(trifluoromethyl)-1H-imidazol-2-yl)phenyl)-5,6,7,8-tetrahydropyrido[4,3-d]pyrimidine] | 1000 to 10000 | 1000 to 10000 |
| Cc1cnn(C(C)C)c1-n1nc(C)c2c1CN(c1ccc(-c3nc(C(F)(F)F)cn3C)c(F)c1)CC2 [Compound 30, 6-(3-fluoro-4-(1-methyl-4-(trifluoromethyl)-1H-imidazol-2-yl)phenyl)-1-(1-isopropyl-4-methyl-1H-pyrazol-5-yl)-3-methyl-4,5,6,7-tetrahydro-1H-pyrazolo[3,4-c]pyridine] | < 50 | < 50 |
| COc1ncnc(C2CC2)c1-c1nn(C)c2c1CN(c1cnc(-c3nc(C(F)(F)F)cn3C)s1)C2 [Compound 10, 5-(3-(4-cyclopropyl-6-methoxypyrimidin-5-yl)-1-methyl-4,6-dihydropyrrolo[3,4-c]pyrazol-5(1H)-yl)-2-(1-methyl-4-(trifluoromethyl)-1H-imidazol-2-yl)thiazole] | 50 to 1000 | 50 to 1000 |
| COc1ncnc(C2CC2)c1-c1nn(C)c2c1CN(c1ccc(-c3nc(C(F)(F)F)cn3C)cc1)C2 [Compound 7, 3-(4-cyclopropyl-6-methoxypyrimidin-5-yl)-1-methyl-5-(4-(1-methyl-4-(trifluoromethyl)-1H-imidazol-2-yl)phenyl)-1,4,5,6-tetrahydropyrrolo[3,4-c]pyrazole] | 50 to 1000 |  |
| COc1ncnc(C2CC2)c1-c1nn(C)c2c1CN(c1ncc(-c3nc(C(F)(F)F)cn3C(C)C)s1)C2 [Compound 8, 2-(3-(4-cyclopropyl-6-methoxypyrimidin-5-yl)-1-methyl-4,6-dihydropyrrolo[3,4-c]pyrazol-5(1H)-yl)-5-(1-isopropyl-4-(trifluoromethyl)-1H-imidazol-2-yl)thiazole] | 50 to 1000 | 50 to 1000 |
| Cc1nn(-c2c(OC(F)F)ncnc2C2CC2)c2c1CCN(c1ccc(-c3nc(C(F)(F)F)cn3C)cn1)C2 [Compound 24, 1-(4-cyclopropyl-6-(difluoromethoxy)pyrimidin-5-yl)-3-methyl-6-(5-(1-methyl-4-(trifluoromethyl)-1H-imidazol-2-yl)pyridin-2-yl)-4,5,6,7-tetrahydro-1H-pyrazolo[3,4-c]pyridine] | 50 to 1000 | 50 to 1000 |
| COc1ncnc(C2CC2)c1-c1nccc2c1CN(c1ccc(-c3nc(C(F)(F)F)cn3C)cn1)CC2 [Compound 2, 8-(4-cyclopropyl-6-methoxypyrimidin-5-yl)-2-(5-(1-methyl-4-(trifluoromethyl)-1H-imidazol-2-yl)pyridin-2-yl)-1,2,3,4-tetrahydro-2,7-naphthyridine] | 50 to 1000 | 50 to 1000 |
| CCn1cc(C(F)(F)F)nc1-c1cnc(N2CCc3c(C)nn(-c4c(OC)ncnc4C4CC4)c3C2)cn1 [Compound 32, 1-(4-cyclopropyl-6-methoxypyrimidin-5-yl)-6-(5-(1-ethyl-4-(trifluoromethyl)-1H-imidazol-2-yl)pyrazin-2-yl)-3-methyl-4,5,6,7-tetrahydro-1H-pyrazolo[3,4-c]pyridine] | < 50 | 50 to 1000 |
| Cc1nn(-c2ccccc2C(C)C)c2c1CN(c1ncc(-c3nc(C(F)(F)F)cn3C)s1)C2 [Compound 22, 2-(1-(2-isopropylphenyl)-3-methyl-4,6-dihydropyrrolo[3,4-c]pyrazol-5(1H)-yl)-5-(1-methyl-4-(trifluoromethyl)-1H-imidazol-2-yl)thiazole] | 50 to 1000 | 1000 to 10000 |
| CC(C)c1ncccc1-c1nn(C)c2c1CN(c1ncc(-c3nc(C(F)(F)F)cn3C)s1)C2 [Compound 9, 2-(3-(2-isopropylpyridin-3-yl)-1-methyl-4,6-dihydropyrrolo[3,4-c]pyrazol-5(1H)-yl)-5-(1-methyl-4-(trifluoromethyl)-1H-imidazol-2-yl)thiazole] | 50 to 1000 |  |
| COc1ncnc(C2CC2)c1-c1nn(C)c2c1CN(c1ccc(-c3nc(C(F)(F)F)cn3C)cn1)C2 [Compound 5, 3-(4-cyclopropyl-6-methoxypyrimidin-5-yl)-1-methyl-5-(5-(1-methyl-4-(trifluoromethyl)-1H-imidazol-2-yl)pyridin-2-yl)-1,4,5,6-tetrahydropyrrolo[3,4-c]pyrazole] | 1000 to 10000 |  |
